Measured values from patent US20250195490A1, “ALPHA-METHYLENE AND AMINOMETHYL LACTONES AND LACTAMS FOR TREATMENT OF CLOSTRIDIOIDES DIFFICILE INFECTION (CDI)” (Purdue Research Foundation, priority 2022, published 2025).

What was measured:
Caco-2 cells = experiment: In vitro cytotoxicity (MTS assay) against Caco-2 cells; conditions: tested at 32, 64 and 128 μg/mL, two hours
Experimental: Percent viable mammalian cells (measured as average absorbance ratio (test agent relative to DMSO) for cytotoxicity analysis of the compounds (tested in triplicate) at 32, 64 and 128 μg/mL against Caco-2 cells using the MTS 3-(4,5-dimethylthiazol-2-yl)-5-(3-carboxymethoxyphenyl)-2-(4-sulfophenyl)-2H-tetrazolium) assay. Dimethyl sulfoxide (DMSO) was used as a negative control to determine a baseline measurement for the cytotoxic impact of each compound. The absorbance values represent an average of a minimum of three samples analyzed for each compound. Error bars represent standard deviation values for the absorbance values. A two-way ANOVA, with post hoc Dunnet's multiple comparisons test, determined statistical difference (denoted by the asterisk, *) (P<0.05) between the values obtained for each compound and DMSO (negative control, used as solvent for the compounds). […]
Method: Compounds were assayed (at concentrations of 32, 64 and 128 μg/mL) against a human colorectal (Caco-2) cell line to determine the potential toxic effect to mammalian cells in vitro. […] Absorbance readings (at OD490) were taken using a kinetic microplate reader (Molecular Devices, Sunnyvale, CA, USA). The quantity of viable cells after treatment with each compound was expressed as a percentage of the viability of DMSO-treated control cells (average of triplicate wells±standard deviation). […]

C. difficile ATCC 43255 = experiment: Antibiotic-induced C. difficile-associated diarrhea mouse model; format: in vivo, C57BL/6 mice; conditions: 10 mg/kg by gavage daily for 5 days; two mouse models (protocols A and B)
Experimental: Preliminary in vivo experiments were carried out in two mouse models of antibiotic-induced C. difficile-associated diarrhea and two recurrence models to ensure the feasibility of using this new class of antibiotic orally against C. difficile infection.
Groups of 12-weeks-old female C57BL/6 mice were sensitized to CDI with two different protocols. A—Mice were given antibiotic cocktail containing gentamicin (0.035 mg/mL), kanamycin (0.4 mg/ml), metronidazole (0.215 mg/mL), colistin (850 U/mL), and vancomycin (0.045 mg/mL) in drinking water for 5 days. Then mice were treated with clindamycin (10 mg/kg) two days after withdrawal of the antibiotic cocktail. One day after clindamycin treatment, mice were infected orally with 1.9×10^6 CFU spore suspension of C. difficile ATCC 43255 [32]. Two hours after infection, animals were divided into groups (n=10), and groups received either vehicle (sterile water), Compound 27 (10 mg/kg), or vancomycin (10 mg/kg) by gavage daily for 5 days. B— In the second protocol mice were sensitized to CDI with cefoperazone (1.5 mg/mL) in the drinking water for 10 days. Afterwards, mice were switched to regular water for 2 days, followed by injecting clindamycin (10 mg/kg) intraperitoneally. One day after clindamycin treatment, mice were infected and treated as group A above.

E. faecium = experiment: Broth microdilution against vancomycin-resistant E. faecium; format: cell-based, Enterococcus faecium; conditions: gradient 128 to 1 μg/mL
Experimental: Method: The minimum inhibitory concentration (MIC) of the compounds and control drugs, linezolid (antibiotic), vancomycin (antibiotic), 5-fluorocytosine (5-FC, antifungal drug), and fluconazole (antifungal drug) was determined using the broth microdilution method according to the guidelines outlined by the Clinical and Laboratory Standards Institute (CLSI) against clinically relevant bacterial (methicillin-resistant Staphylococcus aureus (MRSA), vancomycin-resistant Enterococcus faecalis (VRE), vancomycin-resistant Enterococcus faecium (VRE), Clostridioides difficile and Escherichia coli) and fungal (Candida albicans) strains. A solution equivalent to 0.5 McFarland standard was prepared from each strain and diluted in cation-adjusted Mueller-Hinton broth (for S. aureus and E. coli), tryptone soy broth (for E. faecalis), or brain heart infusion broth (for E. faecium) to achieve a bacterial inoculum of about 5×10^5 CFU/mL. C. difficile strains were cultured in brain heart infusion broth supplemented with hemin and vitamin K. C. albicans was diluted in RPMI medium supplemented with 3-(N-morpholino) propanesulfonic acid to achieve a fungal concentration of about 1.5×10^3 CFU/mL. Compounds and control drugs were added in the first row of the 96-well plates and diluted with media containing bacteria (to achieve a concentration gradient ranging from 128 to 1 μg/mL). For MRSA, VRE, and E. coli strains, plates were then incubated aerobically at 37° C. for at least 18 hours. C. albicans was incubated aerobically at 37° C. for 24 hours. Plates containing C. difficile were incubated anaerobically at […] for 48 hours.

Row | Structure (SMILES) | concentration up to which non-toxic to Caco-2 cells (Caco-2 cells) [µg/mL] | protection (C. difficile ATCC 43255) [%] | inhibition of the tested strains of E. faecium (E. faecium)
1 | COc1cc(C2OC(=O)C(CN3CCCCC3)C2c2ccccc2Br)ccc1OCc1ccccc1 (racemic) [Compound 27] | 128 | 100 | did not inhibit
2 | C=C1C(=O)O[C@H](c2ccccc2O)[C@@H]1c1cccc(C#N)c1 (racemic) [Compound 50] | 32 | – | did not inhibit
3 | CN[C@H](CC(C)C)C(=O)N[C@H]1C(=O)N[C@@H](CC(N)=O)C(=O)N[C@H]2C(=O)N[C@H]3C(=O)N[C@H](C(=O)N[C@H](C(=O)O)c4cc(O)cc(O)c4-c4cc3ccc4O)[C@H](O)c3ccc(c(Cl)c3)Oc3cc2cc(c3O[C@@H]2O[C@H](CO)[C@@H](O)[C@H](O)[C@H]2O[C@H]2C[C@](C)(N)[C@H](O)[C@H](C)O2)Oc2ccc(cc2Cl)[C@H]1O [Vancomycin, reference compound] | – | 100 | –
